“Also recorded” adds a separate entry of the source. Where two headings read alike, the source gives them in different places.
Legend:
[1] = target: T1, MEK1 (Homo sapiens, UniProt Q02750); assay: In vitro MEK1 inhibition assay (Kinase-Glo luminescent kinase assay); format: biochemical; details: average of three experiments each conducted in duplicate
T1 construct: purchased Sigma-Aldrich
Method: In Vitro MEK1 Inhibition Assays.
In vitro MEK1 inhibition activity of inhibitor analogs were determined using Kinase-Glo luminescent kinase assay kits from Promega (WI, USA) per manufacturer's instructions. […] Briefly, series of compound dilutions were added in 96-well plates, followed by MEK1, Erk2, and ATP solutions. Kinase reactions were run at 30° C. for 30 minutes. Equal volumes of Kinase-Glo solution were then added, and reactions were incubated at room temperature for a further 30 minutes. Bioluminescence signals were acquired with an Envision multilabel reader from Perkin Elmer. Assays were conducted in triplicate with various inhibitor concentrations each run in duplicate. IC50 data were calculated using GraphPad Prism software (version 5.0, La Jolla, Calif.).

[2] = target: PI3K (Homo sapiens, UniProt P42336); assay: In vitro PI3K inhibition assay (Adapta TR-FRET); format: biochemical; details: average of three experiments each conducted in duplicate
Method: In Vitro PI3K Inhibition Assays.
Quantitation of PI3K lipid kinase activity was carried out by Life Technologies (Madison, Wis.) with purified enzyme using the fluorescence-based Adapta TR-FRET assay protocol. Assays were conducted in triplicate with various inhibitor concentrations (0.1 nM to 10 μM).

[3] = target: T2, PI3Kα (Homo sapiens, UniProt P42336); assay: PI3K subtype enzyme inhibition; format: biochemical
T2 construct: purchased Life Technologies (assay run by the vendor)

[4] = target: T3, PI3Kβ (Homo sapiens, UniProt P42338); assay: PI3K subtype enzyme inhibition; format: biochemical
T3 construct: purchased Life Technologies (assay run by the vendor)

[5] = target: T4, PI3Kγ (Homo sapiens, UniProt P48736); assay: PI3K subtype enzyme inhibition; format: biochemical
T4 construct: purchased Life Technologies (assay run by the vendor)

[6] = system: pErk1/2 in A549 and D54 cells; assay: Cellular MEK1 inhibition, Western blot of pErk1/2 in cultured tumor cells; format: cell-based, human; details: A549 and D54 cell lines, 1 hour
Method: Western Blot Analysis. […] Cells were washed with phosphatebuffered saline (PBS) and lysed with NP-40 lysis buffer (1% NP40, 150 mM NaCl, and 25 mM Tris, pH 8.0) supplemented with protease inhibitors (Complete protease inhibitor cocktail, Roche, Basel, Switzerland) and phosphatase inhibitors (PhosSTOP, Roche, Basel, Switzerland). […] Proteins were transferred to 0.2 μm nitrocellulose membranes (Invitrogen, CA). Membranes were incubated overnight at 4° C. with primary antibodies after blocking, followed by incubation with appropriate horseradish peroxidase (HRP) conjugated secondary antibody at room temperature for 1 hour. ECL-Plus was used to detect the activity of peroxidase according to the manufacturer's protocol (Amersham Pharmacia, Uppsala, Sweden).

[7] = system: pAkt in A549 and D54 cells; assay: Cellular PI3K inhibition, Western blot of pAkt in cultured tumor cells; format: cell-based, human; details: 1 hour
Method: The in vitro MEK1 and PI3K inhibitory activity of these series of compounds was also assessed in cultured tumor cells (D54, A549). Cellular efficacy of MEK1 and PI3K inhibition by inhibitor compounds was measured by changes in phosphorylation of pErk1/2 and pAkt, respectively. […] Cells were incubated in the presence of indicated compounds for 1 hour and lysates probed with specific antibodies against pAKT and pERK 1/2 and compared with vehicle control (DMSO). A549 (FIG. 2A) and D54 (FIG. 2B) cells were treated with inhibitors at the indicated concentrations for 1 hour and subjected to Western blot analysis.
Western Blot Analysis. Cells were seeded in six-well dishes 24 hours prior to treatment and incubated with the respective inhibitor compound solutions for 1 h. Cells were washed with phosphatebuffered saline (PBS) and lysed with NP-40 lysis buffer (1% NP40, 150 mM NaCl, and 25 mM Tris, pH 8.0) supplemented with protease inhibitors (Complete protease inhibitor cocktail, Roche, Basel, Switzerland) and phosphatase inhibitors (PhosSTOP, Roche, Basel, Switzerland). Concentration of protein was determined using Lowry assays (Bio-Rad, Hercules, Calif.), and equal amounts of whole cell protein lysate were loaded in each lane and resolved using 4-12% gradient Bis-Tris gel (Invitrogen, CA). Proteins were transferred to 0.2 μm nitrocellulose membranes (Invitrogen, CA). Membranes were incubated overnight at 4° C. with primary antibodies after blocking, followed by incubation with appropriate horseradish peroxidase (HRP) conjugated secondary antibody at room temperature for 1 hour. ECL-Plus was used to detect the activity of peroxidase according to the manufacturer's protocol (Amersham Pharmacia, Uppsala, Sweden). Antibodies raised against phospho-p44/42 MAPK (Erk1/2) (Thr202/Tyr204), pAKT(5473), phospho-p70 S6K* and total ERK, AKT antibodies were purchased from Cell Signaling Technology (Beverly, Mass., USA), and anti-β actin (conjugated with HRP) was purchased from Abcam (Cambridge, Mass., USA). Secondary HRP antibodies were purchased from Jackson ImmunoResearch (St. Louis, Mo., USA).

[8] = system: A375 (melanoma), D54 (glioma), CT26 colorectal cancer, A2058 (melanoma) cell lines; assay: Concurrent inhibition in tumor cell lines (multifunctional inhibitors); format: cell-based
Text: The synthesis of another series of single entity, multifunctional inhibitors achieved by covalent linking of structural analogs of a PI3K inhibitor mTOR inhibitor, and an MEK inhibitor is also disclosed.

[9] = system: A549 lung tumor cells; assay: Cell viability, AlamarBlue assay; format: cell-based, human; details: dose dependence
[10] = system: D54 glioma cells; assay: Cell viability, AlamarBlue assay; format: cell-based, human; details: dose dependence
[11] = system: ERK1/2 phosphorylation; assay: In vivo MEK1 inhibition in flank D54 and A549 tumor bearing mice (Western blot)
Method: Four athymic nude Foxn1nu mice were used to evaluate oncogenic target modulation activity in vivo.
In Vivo Evaluation of Inhibitor Efficacy.
Each injectate contained a total volume of 200 μL of cell suspension in 50% RPMI medium mixed with 50% BD Matrigel basement membrane matrix (Becton, Dickinson and Company, East Rutherford, N.J.). […] Tumor tissues were collected from both vehicle and drug-treated groups and subjected to Western blot analysis as previously described.

[12] = system: Akt phosphorylation; assay: In vivo PI3K inhibition in flank D54 and A549 tumor bearing mice (Western blot)
[13] = system: MEK1 and PI3K activities; assay: In vivo MEK1 and PI3K inhibition in intracerebral D54 glioma bearing mice (Western blot); details: intracerebral D54, 400 mg/kg oral gavage, 2 hours
Method: Mice bearing i.c. D54 tumors were treated with either vehicle or 400 mg/kg of ST-162 or ST-168 by oral gavage at 2 hours prior to sacrifice.

[14] = system: MEK1 and PI3K activities; assay: In vivo MEK1 and PI3K inhibition in subcutaneous melanoma tumors A357 and A2058 (Western blot); set-up: species or system mice; details: s.q. melanoma A357 and A2058, 400 mg/kg oral gavage, 2 hours
Method: Mice bearing s.q. melanoma tumors were treated with either vehicle or 400 mg/kg of ST-162 or ST-168 by oral gavage at 2 hours prior to sacrifice.

[15] = system: MEK1 and PI3K activities; assay: In vivo MEK1 and PI3K inhibition in subcutaneous colon tumor CT26 (Western blot); set-up: species or system mice; details: subcutaneous CT26, 400 mg/kg oral gavage, 2 hours
Method: Mice bearing subcutaneous colon tumors were treated with either vehicle or 400 mg/kg of ST-162 or ST-168 by oral gavage at 2 hours prior to sacrifice. The known MEK inhibitor 901 and PI3K inhibitors were also evaluated in this study.

[16] = system: intracerebral D54 glioma tumors; assay: Survival of mice bearing intracerebral D54 tumors; format: in vivo; details: intracerebral D54, 400 mg/kg oral gavage, vs vehicle control; listed as ST-162
Method: (§1) In preliminary studies, several mouse models were tested for therapeutic efficacy using oral administration of ST-162. Athymic nude Foxn1 nu mice were used to evaluate oncogenic target modulation activity in vivo. Mice bearing intracerebral D54 tumors, subcutaneous colon tumors (CT26) and subcutaneous melanoma (A375 and A2058) tumors were treated with either vehicle control or 400 mg/kg of compound ST-162 by oral gavage for 14-30+ days.

[17] = system: melanoma tumors A2058 and A357; assay: Tumor growth of subcutaneous melanoma tumors; format: in vivo, mice; details: 400 mg/kg oral gavage, 14 days, vs vehicle, listed as ST-162, 400 mg/kg
Method: as §1
In FIG. 9, compound ST-162 was administered for 14 days beginning when subcutaneous melanoma tumors A2058 and A357 were measurable by caliper and MRI and tumor volumes were measured over time and compared to vehicle controls.

[18] = system: colon tumors CT-26; assay: Tumor growth of subcutaneous colon tumors; format: in vivo, mice; details: for tumor growth: subcutaneous CT26, 400 mg/kg oral gavage, 14 days, vs vehicle
Method: as §1
In FIG. 10, compound ST-162 was administered for 14 days beginning when subcutaneous colon tumors CT-26 were measurable by caliper and MRI and tumor volumes were measured over time and compared to vehicle controls.
In FIG. 11, ST-162 was administered for 14 days beginning when subcutaneous colon tumors CT-26 were measurable by caliper and MRI and tumor volumes were measured over time and compared to vehicle controls. At day 14, two tumors were removed and compared for size and weight.

[19] = target: T4, PI3Kγ; details: second value in parentheses, unexplained; cited from earlier work
[20] = target: T5, PI3Kδ (Homo sapiens, UniProt O00329); assay: PI3K subtype enzyme inhibition; format: biochemical
T5 construct: purchased Life Technologies (assay run by the vendor)

[21] = system: mTOR/MEK1/PI3K; assay: In vivo inhibition in A375 flank tumor (Western blot); set-up: species or system mouse; details: oral, 2 hour postadministration
Text: (§2) The synthesis of another series of single entity, multifunctional inhibitors achieved by covalent linking of structural analogs of a PI3K inhibitor mTOR inhibitor, and an MEK inhibitor is also disclosed. […] […].

[22] = system: A375 melanoma tumor; assay: In vivo efficacy in A375 melanoma tumor bearing mice
Text: as §2

[23] = mean ± SEM, read-out: PI3K Subtype Inhibition Activity PI3Kα
[24] = mean ± SEM, read-out: PI3K Subtype Inhibition Activity PI3Kβ
[25] = read-out: PI3K Subtype Enzyme Inhibition Data IC50 PI3Kβ
[26] = mean ± SEM, read-out: PI3K Subtype Inhibition Activity PI3Kγ
[27] = read-out: PI3K Subtype Enzyme Inhibition Data IC50 PI3Kγ
[28] = D54 and A549 tumors, compound 14: 375 mg/kg oral gavage, 2 h, 375 mg/kg
[29] = oral administration, 2 h postadministration, Western blot

T3 sequence (P42338 whole entry): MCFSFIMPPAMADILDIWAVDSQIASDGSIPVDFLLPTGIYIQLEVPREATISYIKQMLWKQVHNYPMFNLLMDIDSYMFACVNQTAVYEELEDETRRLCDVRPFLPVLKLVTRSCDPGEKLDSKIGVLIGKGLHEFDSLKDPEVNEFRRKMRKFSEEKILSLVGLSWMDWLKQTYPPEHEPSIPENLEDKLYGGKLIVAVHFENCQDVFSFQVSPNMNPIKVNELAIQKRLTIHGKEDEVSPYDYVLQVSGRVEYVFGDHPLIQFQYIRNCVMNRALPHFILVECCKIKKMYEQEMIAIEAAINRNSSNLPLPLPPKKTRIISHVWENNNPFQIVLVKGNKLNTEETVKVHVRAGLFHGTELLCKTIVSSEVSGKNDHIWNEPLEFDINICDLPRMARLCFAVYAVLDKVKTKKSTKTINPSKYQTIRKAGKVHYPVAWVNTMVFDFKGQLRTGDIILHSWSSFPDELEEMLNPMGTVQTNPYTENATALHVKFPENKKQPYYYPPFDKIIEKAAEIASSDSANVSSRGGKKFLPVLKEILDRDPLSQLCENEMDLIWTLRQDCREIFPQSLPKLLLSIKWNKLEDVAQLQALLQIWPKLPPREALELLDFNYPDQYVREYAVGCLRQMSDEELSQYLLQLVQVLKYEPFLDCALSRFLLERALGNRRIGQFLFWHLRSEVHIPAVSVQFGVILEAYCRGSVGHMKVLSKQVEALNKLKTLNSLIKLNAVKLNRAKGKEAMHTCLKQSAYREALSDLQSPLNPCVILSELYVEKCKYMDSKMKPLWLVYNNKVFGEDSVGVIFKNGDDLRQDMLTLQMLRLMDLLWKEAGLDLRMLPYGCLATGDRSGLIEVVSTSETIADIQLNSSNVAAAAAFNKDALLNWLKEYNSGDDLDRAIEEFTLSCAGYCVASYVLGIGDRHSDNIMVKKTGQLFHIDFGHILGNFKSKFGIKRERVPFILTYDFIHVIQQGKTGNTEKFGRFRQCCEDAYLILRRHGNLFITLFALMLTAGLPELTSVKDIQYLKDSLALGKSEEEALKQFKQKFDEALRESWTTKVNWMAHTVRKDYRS
T3 sequence (P27986 whole entry partner): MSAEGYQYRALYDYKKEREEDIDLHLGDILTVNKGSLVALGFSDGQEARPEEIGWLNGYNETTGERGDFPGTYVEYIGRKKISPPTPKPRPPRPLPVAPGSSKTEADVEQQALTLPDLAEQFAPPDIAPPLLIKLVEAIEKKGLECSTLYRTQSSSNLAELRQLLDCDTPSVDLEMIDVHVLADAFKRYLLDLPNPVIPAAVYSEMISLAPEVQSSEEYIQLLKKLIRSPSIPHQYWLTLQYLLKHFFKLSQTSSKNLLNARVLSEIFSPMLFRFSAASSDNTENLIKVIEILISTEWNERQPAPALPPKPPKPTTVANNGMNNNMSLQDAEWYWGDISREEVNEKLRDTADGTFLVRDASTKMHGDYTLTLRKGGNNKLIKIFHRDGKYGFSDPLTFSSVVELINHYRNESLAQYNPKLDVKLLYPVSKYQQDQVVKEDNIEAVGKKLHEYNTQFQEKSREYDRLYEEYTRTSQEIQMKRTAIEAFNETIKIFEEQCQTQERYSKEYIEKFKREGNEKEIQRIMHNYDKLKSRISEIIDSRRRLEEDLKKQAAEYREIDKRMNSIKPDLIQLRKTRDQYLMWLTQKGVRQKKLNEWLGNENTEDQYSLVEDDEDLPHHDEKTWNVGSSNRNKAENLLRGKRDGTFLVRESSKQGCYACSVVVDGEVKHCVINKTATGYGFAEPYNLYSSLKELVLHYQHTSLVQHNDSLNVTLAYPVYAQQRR
T4 sequence (P48736 whole entry): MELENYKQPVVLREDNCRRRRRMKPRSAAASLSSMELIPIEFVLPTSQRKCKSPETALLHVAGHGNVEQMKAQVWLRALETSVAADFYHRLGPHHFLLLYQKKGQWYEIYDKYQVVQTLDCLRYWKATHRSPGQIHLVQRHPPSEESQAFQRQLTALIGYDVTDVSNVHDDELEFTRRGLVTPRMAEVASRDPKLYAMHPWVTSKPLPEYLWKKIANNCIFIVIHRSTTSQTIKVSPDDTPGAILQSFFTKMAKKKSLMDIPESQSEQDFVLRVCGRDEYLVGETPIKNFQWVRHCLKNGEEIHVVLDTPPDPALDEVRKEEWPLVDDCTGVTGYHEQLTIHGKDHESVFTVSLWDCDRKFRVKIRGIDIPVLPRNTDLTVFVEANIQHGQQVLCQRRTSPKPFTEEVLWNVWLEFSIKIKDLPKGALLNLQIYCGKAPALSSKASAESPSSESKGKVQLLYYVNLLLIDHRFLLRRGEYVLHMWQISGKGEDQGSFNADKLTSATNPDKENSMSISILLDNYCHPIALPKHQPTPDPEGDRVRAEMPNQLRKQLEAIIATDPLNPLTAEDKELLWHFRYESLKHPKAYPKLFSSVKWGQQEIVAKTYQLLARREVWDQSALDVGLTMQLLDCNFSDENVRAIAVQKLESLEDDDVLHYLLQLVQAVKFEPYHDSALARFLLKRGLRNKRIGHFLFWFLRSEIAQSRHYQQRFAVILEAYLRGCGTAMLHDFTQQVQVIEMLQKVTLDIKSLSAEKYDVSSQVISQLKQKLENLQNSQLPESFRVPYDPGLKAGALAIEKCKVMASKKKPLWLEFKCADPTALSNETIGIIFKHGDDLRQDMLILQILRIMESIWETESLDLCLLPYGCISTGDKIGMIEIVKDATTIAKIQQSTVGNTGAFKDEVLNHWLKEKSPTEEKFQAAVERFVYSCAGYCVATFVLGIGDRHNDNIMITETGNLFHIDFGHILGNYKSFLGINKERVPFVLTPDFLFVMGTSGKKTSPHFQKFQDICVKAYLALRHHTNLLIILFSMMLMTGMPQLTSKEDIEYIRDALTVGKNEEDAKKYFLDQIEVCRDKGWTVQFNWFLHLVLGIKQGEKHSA
T2 sequence (P42336 whole entry): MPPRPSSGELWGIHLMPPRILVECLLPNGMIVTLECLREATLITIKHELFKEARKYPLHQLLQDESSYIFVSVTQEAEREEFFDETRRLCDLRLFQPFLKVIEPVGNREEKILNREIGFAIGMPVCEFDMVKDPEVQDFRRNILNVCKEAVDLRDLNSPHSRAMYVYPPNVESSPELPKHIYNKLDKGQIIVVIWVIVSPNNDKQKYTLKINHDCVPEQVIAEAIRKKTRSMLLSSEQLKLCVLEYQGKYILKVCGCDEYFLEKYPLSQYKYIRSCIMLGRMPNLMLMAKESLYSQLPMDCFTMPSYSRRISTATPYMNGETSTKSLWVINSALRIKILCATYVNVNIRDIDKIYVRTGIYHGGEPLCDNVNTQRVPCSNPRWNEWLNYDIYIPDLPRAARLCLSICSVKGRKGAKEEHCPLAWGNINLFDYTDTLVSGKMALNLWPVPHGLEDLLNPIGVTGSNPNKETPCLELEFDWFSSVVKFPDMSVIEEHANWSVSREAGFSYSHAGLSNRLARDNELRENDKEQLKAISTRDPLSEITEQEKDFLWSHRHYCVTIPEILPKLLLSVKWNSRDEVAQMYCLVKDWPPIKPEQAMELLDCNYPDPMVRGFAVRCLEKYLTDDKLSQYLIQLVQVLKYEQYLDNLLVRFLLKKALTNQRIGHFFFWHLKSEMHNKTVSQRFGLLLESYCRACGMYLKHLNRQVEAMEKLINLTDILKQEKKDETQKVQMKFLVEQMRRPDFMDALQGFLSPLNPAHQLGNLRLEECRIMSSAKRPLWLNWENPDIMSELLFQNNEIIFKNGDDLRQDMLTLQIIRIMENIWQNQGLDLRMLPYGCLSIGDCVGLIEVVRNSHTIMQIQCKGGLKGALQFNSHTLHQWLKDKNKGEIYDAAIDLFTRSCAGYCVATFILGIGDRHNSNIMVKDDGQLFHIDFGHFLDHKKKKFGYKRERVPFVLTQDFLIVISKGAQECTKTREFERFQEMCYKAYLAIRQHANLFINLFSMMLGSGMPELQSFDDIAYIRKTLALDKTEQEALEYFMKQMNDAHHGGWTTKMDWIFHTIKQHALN
T2 sequence (P27986 whole entry partner): as the sequence (P27986 whole entry partner) above
T5 sequence (O00329 whole entry): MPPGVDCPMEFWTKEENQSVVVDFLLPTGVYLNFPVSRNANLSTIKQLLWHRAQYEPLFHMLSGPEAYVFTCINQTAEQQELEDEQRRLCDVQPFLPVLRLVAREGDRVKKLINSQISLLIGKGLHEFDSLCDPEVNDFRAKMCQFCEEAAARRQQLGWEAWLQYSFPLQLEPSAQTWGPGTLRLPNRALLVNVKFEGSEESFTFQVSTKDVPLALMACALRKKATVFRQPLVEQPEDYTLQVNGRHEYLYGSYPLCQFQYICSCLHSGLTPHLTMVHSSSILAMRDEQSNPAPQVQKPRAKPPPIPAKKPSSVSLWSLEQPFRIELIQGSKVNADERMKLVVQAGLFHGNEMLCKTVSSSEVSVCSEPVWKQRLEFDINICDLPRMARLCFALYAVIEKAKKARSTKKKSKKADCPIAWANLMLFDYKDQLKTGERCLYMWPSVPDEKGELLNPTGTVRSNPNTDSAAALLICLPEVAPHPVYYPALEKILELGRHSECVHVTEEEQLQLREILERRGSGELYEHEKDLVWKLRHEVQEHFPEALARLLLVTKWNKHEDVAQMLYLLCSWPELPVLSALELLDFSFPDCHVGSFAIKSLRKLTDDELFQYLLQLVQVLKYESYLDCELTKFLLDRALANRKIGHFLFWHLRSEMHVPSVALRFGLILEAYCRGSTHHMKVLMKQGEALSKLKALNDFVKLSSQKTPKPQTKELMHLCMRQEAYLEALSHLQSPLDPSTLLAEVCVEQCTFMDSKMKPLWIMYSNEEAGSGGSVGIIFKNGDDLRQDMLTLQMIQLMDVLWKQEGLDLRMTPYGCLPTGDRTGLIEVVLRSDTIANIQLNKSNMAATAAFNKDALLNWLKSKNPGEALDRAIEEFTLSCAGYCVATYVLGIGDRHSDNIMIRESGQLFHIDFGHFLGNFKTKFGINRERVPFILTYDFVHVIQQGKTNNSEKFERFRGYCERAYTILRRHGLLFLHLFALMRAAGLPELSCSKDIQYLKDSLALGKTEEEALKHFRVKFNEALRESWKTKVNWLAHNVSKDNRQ
T5 sequence (P27986 whole entry partner): as the sequence (P27986 whole entry partner) above

## O=C(NOCCOCCOCCOCCN1CCN(c2nc(N3CCOCC3)nc(-n3c(C(F)F)nc4ccccc43)n2)CC1)c1ccc(F)c(F)c1Nc1ccc(I)cc1F [Compound 14]
[1]
  IC50: 0.15 nM
[2]
  IC50: 191 to 341 nM
[3]; [23]
  IC50: 467 ± 9 nM
[4]; [24]
  IC50: 4070 ± 290 nM
[4]; [25]
  IC50: 4070 ± 290 nM
[5]; [26]
  IC50: 5800 ± 511 nM
[5]; [27]
  IC50: 5800 ± 511 nM
[6]
  MEK inhibition in cells: inhibition was demonstrated; also recorded: most pronounced
[7]; A549 and D54 cell lines, Western blot
  PI3K inhibition in cells: inhibition was demonstrated; also recorded: most pronounced
[7]; cultured A549 cells, Western blot vs DMSO
  PI3K activity indicated by level of pAKT: high potency in inhibiting PI3K activity
[8]
  Concurrent inhibition in tumor cell lines: Concurrent inhibition was demonstrated
[9]
  cell viability: as effective as the combination of ZSTK474 and PD0325901
[10]
  cell viability: as effective as the combination of ZSTK474 and PD0325901
[11]; [28]
  phosphorylation of ERK1/2 (MEK1 activity) in excised tumor tissue: inhibited phosphorylation; also recorded: significant inhibition
[11]; [29]
  inhibition of tumor ERK1/2 phosphorylation: 95%
[12]; [28]
  phosphorylation of Akt (PI3K activity) in excised tumor tissue: inhibited phosphorylation; also recorded: significant inhibition
[12]; [29]
  inhibition of tumor Akt phosphorylation: 67%
[13]
  MEK1 and PI3K activities in tumor relative to vehicle control: successfully modulated both MEK1 and PI3K activities
[14]
  MEK1 and PI3K activities in tumor relative to vehicle control: successfully modulated both MEK1 and PI3K activities
[15]
  MEK1 and PI3K activities in tumor relative to vehicle control: successfully modulated MEK1 and PI3K activities
[16]
  overall survival: improved animal survival; also recorded: significant improvement (P=0.0054)
[17]
  tumor growth: significant tumor growth delays; also recorded: significant reduction of tumor growth
[18]; CT-26, day 14, vs vehicle control tumors
  size of excised tumors: smaller in volume
[18]; listed as MV4-162
  tumor growth: significant reduction of tumor growth
[18]; listed as ST-162
  tumor growth: significant tumor growth delays

## COc1ncc(-c2ccc3nccc(-c4ccnnc4)c3c2)cc1NS(=O)(=O)c1ccc(F)cc1F [GSK 458, reference compound]
[5]; ST-182 and intermediates, read-out: PI3Kγ IC50
  IC50: 0.83 ± 0.1 nM
[19]
  IC50: 0.06 nM

## O=C(NOCCOCCOCCOCCC(=O)N1CCN(c2nc(N3CCOCC3)nc(-n3c(C(F)F)nc4ccccc43)n2)CC1)c1ccc(F)c(F)c1Nc1ccc(I)cc1F [ST-168]
[3]; [23]
  IC50: 69.2 ± 2.2 nM
[3]; read-out: PI3K Subtype Enzyme Inhibition Data IC50 PI3Kα
  IC50: 69.2 ± 2.2 nM
[4]; [24]
  IC50: 1480 ± 377 nM
[4]; [25]
  IC50: 1480 ± 377 nM
[5]; [26]
  IC50: 2290 ± 241 nM
[5]; [27]
  IC50: 2290 ± 241 nM
[20]; mean ± SEM, read-out: PI3K Subtype Inhibition Activity PI3Kδ
  IC50: 41.7 ± 2.1 nM
[20]; read-out: PI3K Subtype Enzyme Inhibition Data IC50 PI3Kδ
  IC50: 41.7 ± 2.1 nM
[8]
  Concurrent inhibition in tumor cell lines: Concurrent inhibition was demonstrated
[13]
  MEK1 and PI3K activities in tumor relative to vehicle control: successfully modulated both MEK1 and PI3K activities
[14]
  MEK1 and PI3K activities in tumor relative to vehicle control: successfully modulated both MEK1 and PI3K activities
[15]
  MEK1 and PI3K activities in tumor relative to vehicle control: successfully modulated MEK1 and PI3K activities
[21]
  inhibition of mTOR/MEK1/PI3K in tumor tissue: combined inhibition of mTOR/MEK1/PI3K was achieved
[22]; A375, 400 mg/kg daily oral, 35 days post-treatment initiation
  reduction in tumor size over vehicle control: > 6 fold
[22]; A375 tumor bearing mice, 400 mg/kg daily oral
  lifespan: significantly increased lifespan
[22]; long term dosage, 40 daily oral doses, 400 mg/kg
  side effects (such as loss in body weight): no detectable side effects

Source: US10919877B2, “Multifunctional inhibitors of MEK/PI3K and mTOR/MEK/PI3K biological pathways and therapeutic methods using the same” (THE REGENTS OF THE UNIVERSITY OF MICHIGAN, priority 2016, dated 2021)
